Reference: patent US7767651B2, “Spiroketal derivatives and use thereof as diabetic medicine” (Chugai Seiyaku Kabushiki Kaisha, priority 2005, dated 2010)

Tests used:
[1] = target: T1, human SGLT2 (Homo sapiens, UniProt P31639); experiment: Inhibitory activity against methyl-α-D-glucopyranoside uptake of human SGLT2; type: cell-based; conditions: SGLT2 inhibition; methyl-α-D-(U-14C)glucopyranoside uptake in CHO-K1 cells stably expressing human SGLT2, 45 minutes at 37° C.
T1 construct: expressed in transfected cells; host or cells: CHO-K1
T1 sequence (P31639 1-672): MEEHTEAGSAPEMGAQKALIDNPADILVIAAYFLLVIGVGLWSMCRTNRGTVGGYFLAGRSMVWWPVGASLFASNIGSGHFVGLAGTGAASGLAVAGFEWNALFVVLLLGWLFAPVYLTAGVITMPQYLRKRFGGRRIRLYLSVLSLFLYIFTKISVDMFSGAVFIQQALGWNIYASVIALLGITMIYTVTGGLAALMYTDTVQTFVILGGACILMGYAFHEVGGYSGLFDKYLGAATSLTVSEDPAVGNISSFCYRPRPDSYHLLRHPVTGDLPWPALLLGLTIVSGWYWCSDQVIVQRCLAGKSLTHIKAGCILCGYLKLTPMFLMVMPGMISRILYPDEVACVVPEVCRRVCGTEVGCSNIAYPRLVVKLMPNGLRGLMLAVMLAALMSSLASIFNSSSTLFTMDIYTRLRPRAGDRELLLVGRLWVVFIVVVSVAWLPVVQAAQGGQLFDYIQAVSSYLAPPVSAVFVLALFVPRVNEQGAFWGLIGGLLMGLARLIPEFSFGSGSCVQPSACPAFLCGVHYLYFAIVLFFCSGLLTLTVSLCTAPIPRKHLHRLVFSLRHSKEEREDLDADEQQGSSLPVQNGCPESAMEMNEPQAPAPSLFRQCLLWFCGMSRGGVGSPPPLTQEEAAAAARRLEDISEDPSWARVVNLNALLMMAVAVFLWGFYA
Text: Evaluation of Inhibitory Activity Against methyl-α-D-glucopyranoside uptake of human Na^+-glucose cotransporter (SGLT1 and SGLT2)
Human SGLT2 cDNA was amplified by PCR with a cDNA library derived from human kidney (Clontech) as a template, synthetic DNA primers and KOD+ DNA Polymerase. The amplified cDNA was inserted into pcRII-Topo vector by using a Topo TA Cloning Dual Promoter kit. E. coli competent cells (TPO10) were transformed with the plasmid vector, cultured in LB medium containing ampicillin (50 mg/L) to grow ampicillin-resistant clones. The plasmid vector containing human SGLT2 cDNA was purified from the clone in a standard manner. Human SGLT2 cDNA added restriction enzyme recognition sites (Xho I at 5′-end, Hind III at 3′-end) was amplified by PCR with the plasmid vector as a template, synthetic DNA primers containing an additional restriction enzyme recognition site and KOD+ DNA Polymerase. This amplified cDNA was digested with Xho I and Hind III, and ligated into expression vector pcDNA3.1(−) digested with Xho I and Hind III by using a Rapid DNA Ligation kit. E. coli competent cells (DH5α) were transformed with the ligated expression vector and grown in ampicillin-containing LB medium. Human SGLT2 expression vector was purified from the ampicillin-resistant clone in a standard manner.
The human SGLT1 expression vector or the human SGLT2 expression vector was digested with the restriction enzyme Pvu I and transfected into CHO-Kl cells with FuGENE (Roche Diagonostics). After the transfection, the cells were cultured at 37° C. in the presence of 5% CO2 for about 3 weeks in DMEM medium (Gibco) containing penicillin (50 U/mL, SIGMA), streptomycin (50 mg/L, SIGMA), geneticin (200 mg/L, Nacalai Tesque, Inc., Japan) and 20% fetal bovine serum to obtain geneticin-resistant clones. Among these clones, clones stably expressing human SGLT1 or human SGLT2 were selected by the evaluating the sodium-dependent uptake activity of sugar (methyl-α-D-glucopyranoside). […]

[2] = tested on: sugar transporters of the facilitated diffusion type; conditions: aglycon of phloridzin; reported; cited from earlier work
[3] = intravenously administered to rats; Nonpatent Document 2; cited from earlier work

IC50 [1] [nM]	SMILES	inhibition of sugar transporters of the facilitated diffusion type [2]	adverse effect on intracerebral glucose levels [3]
5	CC(C)c1ccc(Cc2ccc3c(c2)[C@]2(OC3)O[C@H](CO)[C@@H](O)[C@H](O)[C@H]2O)cc1 [Example 4, 1,1-Anhydro-1-C-[5-(4-isopropylphenyl)methyl-2-(hydroxymethyl)phenyl]-β-D-glucopyranose]	–	–
4	OC[C@H]1O[C@]2(OCc3ccc(Cc4cc5ccccc5s4)cc32)[C@H](O)[C@@H](O)[C@@H]1O [Example 2, 1,1-Anhydro-1-C-[5-(2-benzothiophenyl)methyl-2-(hydroxymethyl)phenyl]-β-D-glucopyranose]	–	–
–	O=C(CCc1ccc(O)cc1)c1c(O)cc(O)cc1O [phloretin]	strongly inhibit	reducing intracerebral glucose levels
4.2	CCc1ccc(Cc2ccc3c(c2)[C@]2(OC3)O[C@H](CO)[C@@H](O)[C@H](O)[C@H]2O)cc1 [Example 1, 1,1-Anhydro-1-C-[5-(4-ethylphenyl)methyl-2-(hydroxymethyl)phenyl]-β-D-glucopyranose]	–	–
